# Experimental data taken from patent US20240158446A1, “CYCLIC COMPOUND HAVING SELECTIVE INHIBITORY ACTION ON KRAS OVER HRAS AND NRAS” (CHUGAI SEIYAKU KABUSHIKI KAISHA, priority 2021, published 2024).
# Legend:
# [1] = target: GDP-bound KRAS wild-type protein (Homo sapiens, UniProt P01116); test: Binding to KRAS by surface plasmon resonance (SPR), Single Cycle Kinetics; conditions: SPR, Single Cycle Kinetics, GDP-bound KRAS wild-type protein; read-out: KRAS KD
# [2] = target: GDP-bound NRAS wild-type protein (Homo sapiens, UniProt P01111); test: Binding to NRAS by surface plasmon resonance (SPR), Single Cycle Kinetics; conditions: ratio of KD for GDP-bound NRAS wild-type protein to KD for KRAS, SPR
# [3] = target: GDP-bound HRAS wild-type protein (Homo sapiens, UniProt P01112); test: Binding to HRAS by surface plasmon resonance (SPR), Single Cycle Kinetics; conditions: ratio of KD for GDP-bound HRAS wild-type protein to KD for KRAS, SPR
# [4] = system: human lung cancer strain NCI-H441; test: cells; conditions: NCI-H441, 96 h, read-out: NCI-H441 IC50 (nM), NCI-H441 cell proliferation, 4 days, CellTiter-Glo;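 also: cell proliferation inhibition after four days measured by CellTiter-Glo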
# Chain of GDP-bound HRAS wild-type protein (P01112 whole entry): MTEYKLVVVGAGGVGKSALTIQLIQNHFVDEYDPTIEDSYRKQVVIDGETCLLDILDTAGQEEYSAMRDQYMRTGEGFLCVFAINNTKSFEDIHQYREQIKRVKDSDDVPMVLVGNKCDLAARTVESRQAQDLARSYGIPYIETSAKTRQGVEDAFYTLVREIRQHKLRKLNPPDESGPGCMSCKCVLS
# Chain of GDP-bound KRAS wild-type protein (P01116 whole entry): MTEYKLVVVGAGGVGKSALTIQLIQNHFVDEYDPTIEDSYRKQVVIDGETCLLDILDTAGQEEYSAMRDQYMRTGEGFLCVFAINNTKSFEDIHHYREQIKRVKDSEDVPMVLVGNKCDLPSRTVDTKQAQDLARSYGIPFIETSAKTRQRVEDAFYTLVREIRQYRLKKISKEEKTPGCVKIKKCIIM
# Chain of GDP-bound NRAS wild-type protein (P01111 whole entry): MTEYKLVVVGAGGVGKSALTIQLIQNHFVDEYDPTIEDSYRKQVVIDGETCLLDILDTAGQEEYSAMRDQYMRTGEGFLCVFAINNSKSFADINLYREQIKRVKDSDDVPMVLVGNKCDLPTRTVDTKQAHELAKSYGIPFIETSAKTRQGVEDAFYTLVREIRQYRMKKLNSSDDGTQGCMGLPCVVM
SMILES,Kd [1],NRAS/KRAS (KD ratio) [2],HRAS/KRAS (KD ratio) [3],IC50 [4]
CCO[C@@H]1C[C@H]2C(=O)NC3(CC(C)(C)C3)C(=O)N(C)[C@@H](C3CCCC3)C(=O)N(C)[C@H](C(=O)N(C)C)CC(=O)N(C)[C@@H](CC3CCC3)C(=O)N[C@@H]([C@@H](C)CC)C(=O)N(C)CC(=O)N(C)[C@H]3C/C=C\CCN(C3=O)[C@@H](Cc3ccc(C(F)(F)F)cc3)C(=O)N(C)CC(=O)N[C@@H](CCc3cc(F)c(C(F)(F)F)c(F)c3)C(=O)N2C1 [PP1651],0.079 nM,A (a compound having 10 or more and less than 20 is denoted as A),B (a compound having 3 or more and less than 10 is denoted as B),2.3 nM
CCO[C@@H]1C[C@H]2C(=O)NC3(CC(C)(C)C3)C(=O)N(C)[C@@H](C3CCCC3)C(=O)N(C)[C@H](CC)CC(=O)N(C)[C@@H](CC3CC3)C(=O)N[C@@H]([C@@H](C)CC)C(=O)N(C)CC(=O)N(C)[C@H]3C/C=C\CCN(C3=O)[C@@H](Cc3ccc(C(F)(F)F)cc3)C(=O)N(C)CC(=O)N[C@@H](CCc3cc(F)c(C(F)(F)F)c(F)c3)C(=O)N2C1 [PP1629],0.36 nM,B (a compound having 3 or more and less than 10 is denoted as B),B (a compound having 3 or more and less than 10 is denoted as B),20.7 nM
CCO[C@@H]1C[C@H]2C(=O)NC3(CC(C)(C)C3)C(=O)N(C)[C@@H](C3CCCC3)C(=O)N(C)[C@H](C(=O)N(C)CC)CC(=O)N(C)[C@@H](CC(C)C)C(=O)N[C@@H]([C@@H](C)CC)C(=O)NCC(=O)N(C)[C@H]3C/C=C\CCN(C3=O)[C@@H](Cc3ccc(C(F)(F)F)cc3)C(=O)N(C)CC(=O)N[C@@H](CCc3cc(F)c(C(F)(F)F)c(F)c3)C(=O)N2C1 [PP1771],0.097 nM,A (a compound having 10 or more and less than 20 is denoted as A),A (a compound having 10 or more and less than 20 is denoted as A),6.6 nM
CCO[C@@H]1C[C@H]2C(=O)NC3(CC(C)(C)C3)C(=O)N(C)[C@@H](C(CC)CC)C(=O)N3CCC[C@@H]3CC(=O)N(C)[C@@H](CC3CC3)C(=O)N[C@@H]([C@@H](C)CC)C(=O)N(C)CC(=O)N(C)[C@H]3C/C=C\CCN(C3=O)[C@@H](Cc3ccc(C(F)(F)F)cc3)C(=O)N(C)CC(=O)N[C@@H](CCc3cc(F)c(C(F)(F)F)c(F)c3)C(=O)N2C1 [PP1610],1.4 nM,A (a compound having 10 or more and less than 20 is denoted as A),A (a compound having 10 or more and less than 20 is denoted as A),86.8 nM
CCO[C@@H]1C[C@H]2C(=O)NC3(CC(C)(C)C3)C(=O)N(C)[C@@H](C3CCCC3)C(=O)N(C)[C@H](C(=O)N(C)CC)CC(=O)N(C)[C@@H](C3CC3)C(=O)N[C@@H]([C@@H](C)CC)C(=O)N(C)CC(=O)N(C)[C@H]3C/C=C\CCN(C3=O)[C@@H](Cc3ccc(C(F)(F)F)cc3)C(=O)N(C)CC(=O)N[C@@H](CCc3ccc(C(F)(F)F)c(OC)c3)C(=O)N2C1 [PP1981],0.1 nM,A (a compound having 10 or more and less than 20 is denoted as A),A (a compound having 10 or more and less than 20 is denoted as A),20.7 nM
CCCN(C)C(=O)[C@@H]1CC(=O)N(C)[C@@H](CCOC)C(=O)N[C@@H]([C@@H](C)CC)C(=O)N(C)CC(=O)N(C)[C@H]2C/C=C\CCN(C2=O)[C@@H](Cc2ccc(C(F)(F)F)cc2)C(=O)N(C)CC(=O)N[C@@H](CCc2cc(F)c(C(F)(F)F)c(F)c2)C(=O)N2C[C@@H](C)C[C@H]2C(=O)NC2(CC(C)(C)C2)C(=O)N(C)[C@@H](C2CCCC2)C(=O)N1C [PP1974],0.18 nM,A (a compound having 10 or more and less than 20 is denoted as A),A (a compound having 10 or more and less than 20 is denoted as A),50 nM
CCCN(C)C(=O)[C@@H]1CC(=O)N(C)[C@@H](C)C(=O)N[C@@H]([C@@H](C)CC)C(=O)N(C)CC(=O)N(C)[C@H]2C/C=C\CCN(C2=O)[C@@H](Cc2ccc(C(F)(F)F)cc2)C(=O)N(C)CC(=O)N[C@@H](CCc2cc(F)c(C(F)(F)F)c(F)c2)C(=O)N2C[C@H](F)C[C@H]2C(=O)NC2(CC(C)(C)C2)C(=O)N(C)[C@@H](C2CCCC2)C(=O)N1C [PP1663],0.038 nM,AA (a compound having 20 or more is denoted as AA),A (a compound having 10 or more and less than 20 is denoted as A),3.6 nM
CCCOC[C@H]1C(=O)N[C@@H]([C@@H](C)CC)C(=O)N(C)CC(=O)N(C)[C@H]2C/C=C\CCN(C2=O)[C@@H](Cc2ccc(C(F)(F)F)cc2)C(=O)N(C)CC(=O)N[C@@H](CCc2cc(F)c(Cl)c(F)c2)C(=O)N2C[C@H](OCC)C[C@H]2C(=O)NC2(CC(C)(C)C2)C(=O)N(C)[C@@H](C2CCCC2)C(=O)N(C)[C@H](C(=O)N(C)C)CC(=O)N1C [PP1764],0.11 nM,AA (a compound having 20 or more is denoted as AA),A (a compound having 10 or more and less than 20 is denoted as A),11.1 nM
CCCN(C)C(=O)[C@@H]1CC(=O)N(C)[C@@H](CC(F)F)C(=O)N[C@@H]([C@@H](C)CC)C(=O)N(C)CC(=O)N(C)[C@H]2C/C=C\CCN(C2=O)[C@@H](Cc2ccc(C(F)(F)F)cc2)C(=O)N(C)CC(=O)N[C@@H](CCc2cc(F)c(Cl)c(F)c2)C(=O)N2C[C@H](OCC)C[C@H]2C(=O)NC2(CC(C)(C)C2)C(=O)N(C)[C@@H](C2CCCC2)C(=O)N1C [PP1757],0.31 nM,AA (a compound having 20 or more is denoted as AA),A (a compound having 10 or more and less than 20 is denoted as A),7.1 nM
CCCN(C)C(=O)[C@@H]1CC(=O)N(C)[C@@H](COCC)C(=O)N[C@@H]([C@@H](C)CC)C(=O)N(C)CC(=O)N(C)[C@H]2C/C=C\CCN(C2=O)[C@@H](Cc2ccc(C(F)(F)F)cc2)C(=O)N(C)CC(=O)N[C@@H](CCc2ccc(C(F)(F)F)c(OC)c2)C(=O)N2C[C@H](OCC)C[C@H]2C(=O)NC2(CC(C)(C)C2)C(=O)N(C)[C@@H](C2CCCC2)C(=O)N1C [PP2012],0.097 nM,AA (a compound having 20 or more is denoted as AA),A (a compound having 10 or more and less than 20 is denoted as A),11.6 nM
CC[C@H](C)[C@@H]1NC(=O)[C@H](CC2CCC2)N(C)C(=O)C[C@@H](C(=O)N(C)C)N(C)C(=O)[C@H](C2CCCC2)N(C)C(=O)C2(CCC2)N(C)C(=O)[C@@H]2CCCN2C(=O)[C@H](CCc2cc(F)c(C(F)(F)F)c(F)c2)NC(=O)CN(C)C(=O)[C@H](Cc2ccc(C)cc2)N2CC/C=C\C[C@@H](C2=O)N(C)C(=O)CN(C)C1=O [PP1802],0.082 nM,A (a compound having 10 or more and less than 20 is denoted as A),B (a compound having 3 or more and less than 10 is denoted as B),5.8 nM
CC[C@H](C)[C@@H]1NC(=O)[C@H](CC(F)(F)F)N(C)C(=O)C[C@@H](C(=O)N(C)C)N(C)C(=O)[C@H](C2CCCC2)N(C)C(=O)C2(CC(C)(C)C2)NC(=O)[C@@H]2C[C@@H](F)CN2C(=O)[C@H](CCc2cc(F)c(C(F)(F)F)c(F)c2)NC(=O)CN(C)C(=O)[C@H](Cc2ccc(C(F)(F)F)cc2)N2CC/C=C\C[C@@H](C2=O)N(C)C(=O)CN(C)C1=O [PP1688],0.025 nM,A (a compound having 10 or more and less than 20 is denoted as A),A (a compound having 10 or more and less than 20 is denoted as A),1.5 nM
CC[C@H](C)[C@@H]1NC(=O)[C@H](CC)N(C)C(=O)C[C@@H](C(=O)N(C)CC)N(C)C(=O)[C@H](C2CCCC2)N(C)C(=O)C2(CC(C)(C)C2)NC(=O)[C@@H]2C[C@@H](C)CN2C(=O)[C@H](CCc2ccc(C(F)(F)F)c(OC)c2)NC(=O)CN(C)C(=O)[C@H](Cc2ccc(C)cc2)N2CC/C=C\C[C@@H](C2=O)N(C)C(=O)CN(C)C1=O [PP1870],0.19 nM,A (a compound having 10 or more and less than 20 is denoted as A),A (a compound having 10 or more and less than 20 is denoted as A),12.4 nM
CCO[C@@H]1C[C@H]2C(=O)NC3(CC(C)(C)C3)C(=O)N(C)[C@@H](C3CCCC3)C(=O)N(C)[C@H](CC)CC(=O)N(C)[C@@H](CC)C(=O)N[C@@H]([C@@H](C)CC)C(=O)N(C)CC(=O)N(C)[C@H]3C/C=C\CCN(C3=O)[C@@H](Cc3ccc(C(F)(F)F)cc3)C(=O)N(C)CC(=O)N[C@@H](CCc3cc(F)c(C(F)(F)F)c(F)c3)C(=O)N2C1 [PP1623],0.19 nM,A (a compound having 10 or more and less than 20 is denoted as A),A (a compound having 10 or more and less than 20 is denoted as A),4.5 nM
CCCN(C)C(=O)[C@@H]1CC(=O)N(C)[C@@H](C(C)C)C(=O)N[C@@H]([C@@H](C)CC)C(=O)N(C)CC(=O)N(C)[C@H]2C/C=C\CCN(C2=O)[C@@H](Cc2ccc(C(F)(F)F)cc2)C(=O)N(C)CC(=O)N[C@@H](CCc2cc(F)c(C(F)(F)F)c(F)c2)C(=O)N2C[C@H](OCC)C[C@H]2C(=O)NC2(CCC2)C(=O)N(C)[C@@H](C2CCCC2)C(=O)N1C [PP1992],0.21 nM,AA (a compound having 20 or more is denoted as AA),B (a compound having 3 or more and less than 10 is denoted as B),17.7 nM
